According to US7276519B2, “Thieno[3,2-b]pyridine-6-carbonitriles and thieno[2,3-b]pyridine-5-carbonitriles as protein kinase inhibitors” (Wyeth, priority 2002, dated 2007):
“And” between values parts separate entries of the source, which are not always exact repeats. Equal values may be shown once.

How the values were obtained:
[1] = molecular target: T1, Raf-1 (c-Raf) / GST-MEK1 (Raf and/or Mek kinase); test: Raf/Mek kinase cascade assay; assay type: biochemical, human; conditions: Table 4; read-out: Raf/MEK enzyme IC50
T1 construct: Sf9 insect cell lysate containing full length 6his-tagged recombinant human c-Raf; fused on or other part: 6His tag on c-Raf; GST on MEK1
Protocol: Raf/Mek Kinase Cascade Assay
(Specific Activity: ˜200 U/ml). Human Non-active Mek-1-GST and human GST-MAP kinase recombinant proteins produced in E. coli).
Stock Solutions Raf/Mek Cascade Assay:
• 1. Assay Dilution Buffer (ADB): 20 mM MOPS, pH 7.2, 25 mM β-glycerol phosphate, 5 mM EGTA, 1 mM sodium orthovanadate, 1 mM dithiothreitol. • 2. Magnesium/ATP Cocktail: 500 μM cold ATP and 75 mM magnesium chloride in ADB. • 3. Active Kinase: Human Active c-Raf: Use at 0.4 U per assay point. • 4. Non-active GST-MEK1: Use at 0.1 μg per assay point. • 5. Non-active GST-p42 MAP Kinase: Use at 1.0 μg per assay point. Stock Solutions ELISA: • 1. TBST—Tris (50 mM, pH 7.5), NaCl (150 mM), Tween-20 (0.05%) • 2. Superblock (Pierce) • 3. Anti-GST Ab (Pharmacia) • 4. Anti-Phospho MAPK (Sigma) • 5. Anti-Mouse Ab/Europium conjugate (Wallac) Assay Procedure: First Stage: c-Raf Dependent Activation of GST-MEK and GST-MAPK • 1. Add […] of ADB per assay (i.e. per well of a 96 well plate) • 2. Add […] of 0.5 mM cold ATP and 75 mM magnesium chloride in ADB. • 3. Add 2 ml of c-Raf (0.4 U/assay), in conjunction with 1.6 ml non-active MEK1 ([…]). • 4. Add 4 ml of non-active GST-p42 MAP Kinase ([…]). • 5. Incubate for 60 minutes at 30° C. in a shaking incubator. • 6. Transfer this mixture to an anti-GST Ab coated 96 well plate (Nunc Immunosorb plates coated o/n with a-GST, then blocked with Pierce Superblock). • 7. Incubate for 60 minutes at 30° C. in a shaking incubator • 8. Wash 3× with TBST, add Anti-Phospho MAPK (Sigma) (1:3000) • 9. Incubate for 60 minutes at 30° C. in a shaking incubator • 10. Wash 3× with TBST, add Anti-Mouse Ab/Europium conjugate (Wallac) (1:500) • 11. Incubate for 60 minutes at 30° C. in a shaking incubator • 12. Wash 3× with TBST, Read plates in Wallac Victor model Plate Reader. • 13. Collect data analyze in Excel for single point and IC50 determinations.
Single point assay—% inhibition at 10 mg/ml (% Inhibition=1—cpd.treated sample/untreated control). IC50 determinations—done on compounds from single point assays with >80% inhibition. Typically, the Raf/Mek assay is run at compound concentrations from 10 μM to 1 nM in half log dilutions. (% inhibition is determined for each compound concentration). Multiple entries for a given compound indicate that it was tested multiple times. The results obtained measure Raf and/or Mek kinase inhibition, and for representative compounds of this invention are listed in Table 4.

LoVo cells = test: Cell based screen for inhibitors of Raf and/or Mek kinase, LoVo; set-up: species or system human; conditions: Table 4, four days incubation, SRB
Protocol: (§1) Cell Based Screen for Inhibitors of Raf and/or Mek Kinase.
(§2) Cell Lines: Human tumor cell lines LoVo which are known to be growth inhibited by low nM concentrations of a reference standard inhibitor of Ras and human adenocarcinoma cell line CaCo-2, which is known to be growth resistant to the same reference compound.
(§3) Cell Media: RPMI 1640 with 10% Fetal Bovine Serum supplemented with L-glutamine and Pennicilin/Streptomycin. • Compounds: Supplied usually as a 10 mM stock in 100% DMSO. • Normal Saline: 150 mM NaCl • Trichloroacetic Acid (TCA): 50% (w/v) in water • Sulforhodamine B (SRB): 0.4% (w/v) in 1% Acetic Acid • Tris Base: 10 mM in water Methods
(§4) Cells are plated at 2000 cells per well for cell line LoVo, 1,750 cells for cell line BXPC3, 1,000 cells for cell line WM266–4 and 1500 cells for cell line CaCo-2 in 96 well plates. Cells are plated in media (200 μl) and allowed to adhere overnight at 37° C. At 24 hours post plating, compounds are added directly at a volume of 0.5 μl. For the qualitative screen (compounds screened at 25 μM) compound is added directly to cells. For the quantitative screen, compound is first diluted in DMSO to generate concentrations of compound or reference standard of: 1, 5, 10 and 25 μM. It is advisable to make the dilutions in an identical 96 well plate so that compounds can be added using a multichannel micropipettor set at 0.5 μl. The cells are then incubated for four days after which the media is removed using a 12 well manifold by first tipping the plate forward at a 45 degree angle and then inserting the manifold in an upright orientation to prevent the tips of the manifold from disturbing cells at the bottom of the plate. 200 μl of normal saline is then added to each well using an 8 well multichannel pipettor, followed by the careful addition of 50 μl of 50% TCA. The plates are then incubated for 2 hours at 4° C., after which the supernatant is removed using the same technique as above and the plated washed twice with 200 μl water. The plates are then air dried and 50 μl of SRB stock solution is carefully added so that the entire bottom of each well is covered. This again can be used using an 8 well multichannel pipettor. The SRB is incubated with fixed cells for 15 minutes at room temperature after which the SRB is removed with the manifold as described above and the plates washed twice with 350 μl of 1% acetic acid per well each time. The plates are then air dried after which the bound SRB is released from protein by the addition of 200 μl of Tris base. Resolubilizing the SRB is aided by placing the plates on a rotator for 15–30 minutes. The absorbance of each well is determined at 550 or 562 nm using a microtiter plate reader.
(§5) Each compound or dilution thereof is performed in triplicate. Outliers are identified by visual inspection of the data. Each plate should have a “0” control (vehicle only).
(§6) Quantitative Assay: A standard curve is constructed by plotting the concentration of compound against the average absorbance calculated at that concentration. A curve is plotted and the concentration at which the curve passes through the 50% the absorbance mark seen in the “0” control well is the IC50 calculated for that compound. Multiple entries for a given compound indicate that it was tested multiple times.

BXPC3 cells = test: Cell based screen for inhibitors of Raf and/or Mek kinase, BXPC3; conditions: Homo sapiens, BXPC-3, 96 h; Table 4; four days incubation, SRB
Protocol: as §1, §2, §3, §4, §5, §6

WM266-4 cells = test: Cell based screen for inhibitors of Raf and/or Mek kinase, WM266-4; conditions: Table 4, four days incubation, SRB
Protocol: as §1, §2, §3, §4, §5, §6

Cn1ccnc1Sc1ccc(Nc2c(C#N)cnc3cc(-c4ccc(CN5CCOCC5)cc4)sc23)cc1Cl [Example 83, 7-({3-chloro-4-[(1-methyl-1H-imidazol-2-yl)thio]phenyl}amino)-2-[4-(morpholin-4-ylmethyl)phenyl]thieno[3,2-b]pyridine-6-carbonitrile]
IC50 [1]: 41 nM
IC50 (LoVo cells; Homo sapiens, LoVo, 96 h): 36 nM
IC50 (LoVo cells): 38 nM
IC50 (BXPC3 cells): > 1000 nM
IC50 (WM266-4 cells; Homo sapiens, WM 266-4, 96 h): > 1000 nM
melting point: 150 to 152 °C

Cn1ccnc1Sc1ccc(Nc2c(C#N)cnc3cc(C#CCCN4CCOCC4)sc23)cc1Cl [Example 86]
IC50 [1]: 221 nM and 332 nM
IC50 (LoVo cells; Homo sapiens, LoVo, 96 h): 94 nM
IC50 (LoVo cells): 160 nM
IC50 (BXPC3 cells): 350 nM
IC50 (WM266-4 cells; Homo sapiens, WM 266-4, 96 h): 350 nM
melting point: 195 to 200 °C

CN(C)CC#Cc1cc2ncc(C#N)c(Nc3ccc(Sc4nccn4C)c(Cl)c3)c2s1 [Example 91, 7-({3-chloro-4-[(1-methyl-1H-imidazol-2-yl)thio]phenyl}amino)-2-[3-(dimethylamino)prop-1-ynyl]thieno[3,2-b]pyridine-6-carbonitrile]
IC50 [1]: 475 nM
IC50 (LoVo cells; Homo sapiens, LoVo, 96 h): 64 nM
IC50 (BXPC3 cells): 92 nM
IC50 (WM266-4 cells; Homo sapiens, WM 266-4, 96 h): 95 nM
IC50 (WM266-4 cells): 85 nM
melting point: 204 to 207 °C

CCN(CC)Cc1ccc(-c2cc3ncc(C#N)c(Nc4ccc(Sc5nccn5C)c(Cl)c4)c3s2)cc1 [Example 98, 7-({3-chloro-4-[(1-methyl-1H-imidazol-2-yl)thio]phenyl}amino)-2-{4-[(diethylamino)methyl]phenyl}thieno[3,2-b]pyridine-6-carbonitrile]
IC50 [1]: 5.6 nM
IC50 (LoVo cells; Homo sapiens, LoVo, 96 h): 33 nM
IC50 (BXPC3 cells): 38 nM
IC50 (WM266-4 cells; Homo sapiens, WM 266-4, 96 h): 40 nM
melting point: 200 to 203 °C

CN1CCN(Cc2ccc(-c3cc4ncc(C#N)c(Nc5ccc(Sc6nccn6C)c(Cl)c5)c4s3)cc2)CC1 [Example 99, 7-({3-chloro-4-[(1-methyl-1H-imidazol-2-yl)thio]phenyl}amino)-2-{4-[(4-methylpiperazin-1-yl)methyl]phenyl}thieno[3,2-b]pyridine-6-carbonitrile]
IC50 [1]: 4.5 nM
IC50 (LoVo cells; Homo sapiens, LoVo, 96 h): 39 nM
IC50 (BXPC3 cells): 41 nM
IC50 (WM266-4 cells; Homo sapiens, WM 266-4, 96 h): > 1000 nM
melting point: 221 to 224 °C
